Values joined by “and” are separate entries in the source; they are usually repeats but may differ in a detail not shown here. Identical values can stand only once. “Also recorded” adds a separate entry of the source.
Legend:
JCV = test: HDP-CDV given to patients with viral infections, virology data; conditions: patient, JCV associated PML; 2 mg/kg BIW; initial 398 (CSF) and 557 (urine)
HSV-1 = test: In vitro antiviral activity in cell culture; type: cell-based; conditions: Human alphaherpesvirus 1; HSV-1, cell culture
BKV [1] = test: Study HDP-CDV-201: serum creatinine as marker of renal function; conditions: for Creatinine level and renal function vs placebo: BKU+ at baseline (post-HSCT engraft)
BKV [2] = test: HDP-CDV given to patients with viral infections, virology data; conditions: patient
[3] = Pharmacokinetic analysis in pediatric and geriatric patients; type: in vivo, human
Method: This study population included five children. Pediatric patients received approximate doses of 1, 2, 3, or 4 mg/kg given once or twice weekly. […] Variability in PK parameters for this age group was high with respect to AUC, Cmax, and CL/F. In general, pediatric patients had lower plasma concentrations of HDP-CDV and CDV than adult healthy volunteers or patients on the same dose and schedule.
The study population also included 3 elderly adults. Geriatric patients received approximate doses of 1, 2, or 3 mg/kg given either once or twice weekly. Similar to pediatric patients, the medical condition of geriatric patients varied widely. Variability in PK parameters for this age group was high with respect to AUC, Cmax, and CL/F. In general, geriatric patients had higher plasma concentrations of HDP-CDV and CDV and lower CL/F than those observed in younger healthy volunteers or patients.
High CDV CL/fm values were also observed in children.

EBV = test: In vitro antiviral activity in cell culture; type: cell-based; conditions: human gammaherpesvirus 4
CMV = test: HDP-CDV given to patients with viral infections, virology data; conditions: patient
BKV [4] = test: Study HDP-CDV-201: hematuria and BKV bladder events; type: in vivo, human
Method: A multicenter, randomized, double-blind, placebo-controlled, dose-escalation study of safety, tolerability, and ability of HDP-CDV to prevent or control […], and EBV infection and associated disorders was conducted. During enrollment of patients in the study, urine samples of candidate patients were routinely screened for BKV. Plasma was collected from patients who tested positive for BKV viruria in urine, and AdV, EBV and BKV level in the plasma was evaluated.

CCCCCCCCCCCCCCCCOCCCOP(=O)(O)COC(CO)Cn1ccc(N)nc1=O (stereo not shown) [HDP-CDV]
JCV viral load in the CSF and urine during treatment (JCV): viral load became undetectable (<300 copies/mL | EC50 (HSV-1): 60 nM | rates of creatinine elevations or creatinine or heme+ urine, HDP-CDV vs placebo (BKV [1]; 105 subjects consistently BK negative): numerically similar | creatinine elevations >120 microM and =>25% increase over baseline (BKV [1]; BK negative throughout (7/78), placebo 7.4%): 9.0% | creatinine elevations (>120 last and >25% increase from baseline) OR 1+ heme, confirmed, new onset (BKV [1]; BK negative throughout (11/78), placebo 11.1%): 14.1% | end of treatment creatinine elevations >120 microM and =>25% over baseline (BKV [1]; BK positive during treatment (7/93), placebo 18.75%): 7.5% | creatinine elevations (>120 last and >25% increase from baseline) OR 1+ heme, confirmed, new onset (BKV [1]; BK positive during treatment (11/93), placebo 37.5%): 11.8% | difference in frequency between treatments, creatinine elevations or new onset heme+ urinalyses (BKV [1]; BK-positive subjects): 3.2 fold | Creatinine level and renal function vs placebo (BKV [1]; FIG. 2): prevented increase in Creatinine level and worsening of renal function | Creatinine level and renal function vs placebo (BKV [1]; FIG. 2, listed as HDP-cidofovir): reduces renal impairment | developed renal impairment (BKV [1]; BKU+ subjects (10/77), placebo 29%): 13% | end organ damage vs placebo (BKV [1]; BKU− at baseline, FIG. 2): did not impact the end organ damage | renal impairment (BKV [1]; BKU− subjects (6/94), placebo 6%): 6% | efficacy of twice weekly dosing (BKV [1]; Study HDP-CDV-201 retrospective analysis): equally or more effective | reduction of the incidence of renal dysfunction (creatinine elevations) vs placebo (BKV [1]; subjects BK viruric during the treatment period): 2.5 fold | response of BKV in urine (BKV [2]; 57.9 kg, 2 mg/kg BIW): CMV viremia but no sustained response of | BK viruria during administration (BKV [2]; 69 kg, BKV hemorrhagic cystitis, 2 mg/kg, 1 mg/kg second dose, then 2 mg/kg BIW): ganciclovir. BK viruria decreased during | BKV in urine (BKV [2]; 108 kg, 3 mg/kg first dose, 2 mg/kg BIW thereafter, by a similar amount (almost 2 log10)): rose | CDV CL/fm values ([3]; children): High | CL/F vs younger healthy volunteers or patients ([3]; geriatric patients aged 66-68 years): lower | plasma concentrations of HDP-CDV and CDV vs younger healthy volunteers or patients ([3]; geriatric patients aged 66-68 years, approx. 1-3 mg/kg once or twice weekly): higher | CL/F values vs older subjects ([3]; patients <20 years of age): higher | EC50 (EBV): 40 nM | decrease in CMV viremia (CMV; 61 kg, GCV res (UL97), 3 mg/kg BIW, first month of dosing): GCV res (UL97). There was a 1.9 log10 | CMV viremia 4 days after the third dose (CMV; 63.3 kg, refractory CMV, UL97 and UL54 mutations, 4 mg/kg BIW, from 9200 copies/mL): first day of dosing to 1000 copies/mL 4 | CMV after dosing interruption (CMV; 63.3 kg, refractory CMV, 4 mg/kg BIW): interrupted resulting in virologic rebound. | CMV suppression during therapy (CMV; 69 kg, 2 mg/kg, 1 mg/kg second dose, then 2 mg/kg BIW, after discontinuation of ganciclovir): CMV suppression continued during HDP- | CMV viremia during therapy (CMV; 72.8 kg, post lung transplant CMV, 3 mg/kg BIW): There was no change in CMV viremia | developed Hem+ during the Study (BKV [4]; BK viruria positive (BKU+) at Baseline, 4 of 77, placebo 33%): 5% | clinical bladder adverse events related to BKV (BKV [4]; BKU+ subjects at Baseline (6/77), placebo 12.5-13%): 8% and 7.8% | Hem+ (BKV [4]; BKU− subjects): 4% | Hem+ vs placebo (BKV [4]; BKV viruria negative (BKU−) at baseline, FIG. 1): no significant difference | BKV associated adverse bladder events (BKV [4]; HDP-CDV treatment vs placebo): decreased frequency; also recorded: decreased the incidence; also recorded: beneficial effect | rate of confirmed blood positive urinalyses relative to placebo-treated subjects (BKV [4]; HDP-CDV- compared to placebo-treated): ⅙^th | Hematuria (Hem+) vs placebo (BKV [4]; HSCT patients with BKV at base line (BKU+), FIG. 1): prevented Hematuria; also recorded: reduces hematuria | BK-related bladder events (cystitis or blood in urine) (BKV [4]; all HDP-CDV subjects (6/171), placebo 5.1%): 3.5% | rate of blood positive urinalyses during the treatment period (BKV [4]; all HDP-CDV-treated subjects (8/171), placebo 15.2%): 4.7% | subjects with BK-related bladder AEs (BKV [4]; received 40 mg QW): 2 | microscopic hematuria (BKV [4]; subjects shedding BKV in their urine): reduction in microscopic hematuria | BK-related bladder AEs (BKV [4]; subjects who received doses >100 mg QW (4/171)): 2.3% | difference between pooled HDP-CDV- and placebo-treated groups in rates of confirmed blood positive urinalyses (BKV [4]; subjects with BKV viruria during the treatment period): ~6 fold | rate of confirmed blood positive urinalyses (BKV [4]; subjects with BKV viruria during the treatment period (4/171), placebo 13.6%): 2.3% | rate of blood positive urinalyses (BKV [4]; subjects without BK viruria, placebo 1.7%): 2.4%
